Legend:
[1] = test system: Mus musculus; test: Acute lethal toxicity in mouse at 8.4 mg/kg when administered intravenously; value = 5/10; format: organism-based; set-up: dose 8.4 mg/kg, route intravenous; details: in vivo, iv
[2] = test system: Canis familiaris; test: Compound was evaluated for protection against cisplatin-induced emesis by measuring number of retches in dogs administered intravenously at 0.03 mg/kg; format: functional, Canis lupus familiaris; details: route intravenous
[3] = test system: Canis familiaris; test: Compound was evaluated for protection against cisplatin-induced emesis by measuring number of retches in dogs administered perorally at 1.0 mg/kg; format: functional, Canis lupus familiaris; details: route oral
[4] = test system: Canis familiaris; test: Compound was evaluated for protection against cisplatin-induced emesis by measuring number of emetic episodes in dogs administered perorally at 1.0 mg/kg; format: functional, Canis lupus familiaris; details: route oral
[5] = Compound was evaluated for number of emetic episodes in ferrets administered intravenously at 0.3 mg/kg; format: functional, Mustela putorius furo; details: route intravenous
[6] = Compound was evaluated for protection against cisplatin-induced emesis by measuring number of retches in ferrets administered perorally at 1.0 mg/kg; format: functional, Mustela putorius furo; details: route oral
[7] = test system: Canis familiaris; test: Compound was evaluated for protection against cisplatin-induced emesis by measuring number of retches in dogs administered perorally at 0.3 mg/kg; format: functional, Canis lupus familiaris; details: route oral
[8] = test system: Canis familiaris; test: Compound was evaluated for protection against cisplatin-induced emesis by measuring number of emetic episodes in dogs administered perorally at 0.3 mg/kg; format: functional, Canis lupus familiaris; details: route oral
[9] = test system: Canis familiaris; test: Compound was evaluated for protection against cisplatin-induced emesis by measuring number of emetic episodes in dogs administered intravenously at 0.1 mg/kg; format: functional, Canis lupus familiaris; details: route intravenous
[10] = test system: Canis familiaris; test: No. of emetic episodes in dogs when administered perorally at 3.0 mg/kg; format: functional, Canis lupus familiaris; details: route oral
[11] = test system: Mustela putorius furo; test: Compound was evaluated for number of emetic episodes in ferrets administered perorally at 0.1 mg/kg; format: functional; details: route oral
[12] = test system: Canis familiaris; test: Compound was evaluated for protection against cisplatin-induced emesis by measuring number of emetic episodes in dogs administered intravenously at 0.3 mg/kg; format: functional, Canis lupus familiaris; details: route intravenous
[13] = test system: Canis familiaris; test: Compound was evaluated for protection against cisplatin-induced emesis by measuring number of retches in dogs administered intravenously at 0.1 mg/kg.; format: functional, Canis lupus familiaris; details: route intravenous
[14] = test system: Canis familiaris; test: Compound was evaluated for protection against cisplatin-induced emesis by measuring number of emetic episodes in dogs administered intravenously at 0.03 mg/kg; format: functional, Canis lupus familiaris; details: route intravenous
[15] = test system: Mustela putorius furo; test: Compound was evaluated for number of emetic episodes in ferrets administered perorally at 0.3 mg/kg; format: functional; details: route oral
[16] = Compound was evaluated for number of emetic episodes in ferrets administered intravenously at 0.1 mg/kg; format: functional, Mustela putorius furo; details: route intravenous
[17] = test system: Rattus norvegicus; test: Inhibitory activity against Bezold-jarisch functional assay, inducing a transient bradycardia upon intravenous administration of 5-hydroxytryptamine-(10 ug/kg) in anesthetized rats.; details: read-out: ID50 (the source's name)
[18] = test system: Canis familiaris; test: Compound was evaluated for protection against cisplatin-induced emesis by measuring number of retches in dogs administered perorally at 3.0 mg/kg; format: functional, Canis lupus familiaris; details: route oral
[19] = test system: Mustela putorius furo; test: Compound was evaluated for number of emetic episodes in ferrets administered perorally at 1.0 mg/kg; format: functional; details: route oral
[20] = Compound was evaluated for protection against cisplatin-induced emesis by measuring number of retches in ferrets administered perorally at 0.3 mg/kg; format: functional, Mustela putorius furo; details: route oral
[21] = Compound was evaluated for number of emetic episodes in ferrets administered intravenously at 1.0 mg/kg; format: functional, Mustela putorius furo; details: route intravenous
[22] = Compound was evaluated for protection against cisplatin-induced emesis by measuring number of retches in ferrets administered perorally at 0.1 mg/kg; format: functional, Mustela putorius furo; details: route oral
[23] = test system: Canis familiaris; test: Compound was evaluated for protection against cisplatin-induced emesis by measuring number of retches in dogs administered intravenously at 0.3 mg/kg; format: functional, Canis lupus familiaris; details: route intravenous

## Cc1nccn1CC1CCc2c(c3ccccc3n2C)C1=O (stereo unspecified) [ONDANSETRON]
[1]
  Acute lethal toxicity: Partially active
[2]
  No. of retches: 118.8
[3]
  No. of retches: 29.8
[4]
  No. of emetic episodes: 2.8
[5]
  No. of emetic episodes: 3.5
  No. of retches: 42.5
[6]
  No. of retches: 39.5
[7]
  No. of retches: 112.8
[8]
  No. of emetic episodes: 9
[9]
  No. of emetic episodes: 2.2
[10]
  No. of emetic episodes: 2
[11]
  No. of emetic episodes: 8.5
[12]
  No. of emetic episodes: 4.1
[13]
  No. of retches: 9
[14]
  No. of emetic episodes: 10.5
[15]
  No. of emetic episodes: 6.3
[16]
  No. of emetic episodes: 6.3
  No. of retches: 114
[17]
  ED50: 0.86 µg/kg
[18]
  No. of retches: 22.8
[19]
  No. of emetic episodes: 2.3
[20]
  No. of retches: 84.8
[21]
  No. of emetic episodes: 0
  No. of retches: 2.5
[22]
  No. of retches: 125.3
[23]
  No. of retches: 35.4

— ChEMBL document CHEMBL1125546, “Novel 5-HT3 antagonists. Isoquinolinones and 3-aryl-2-pyridones” (J Med Chem, 1992)
